Reference: PubChem BioAssay (NCI)
Several values for one entry are separate records, joined by “and”; a condition that tells them apart may be missing. Equal values may be shown once.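 Where inhibition never reached the appropriate level, the endpoint shown equals the highest concentration tested. Otherwise, values were interpolated linearly from a five-concentration, 48-hour dose response in 96-well plates. GI50 is the concentration that inhibits growth by half. TGI is the concentration that stops growth completely.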

How the values were obtained:
Experiment in all cases: growth of human tumour cells (NCI), 48 h
[1] = test system: PC-3 prostate
[2] = test system: OVCAR-4 ovarian
[3] = test system: CAKI-1 renal
[4] = test system: OVCAR-3 ovarian
[5] = test system: SF-268 CNS
[6] = test system: OVCAR-8 ovarian
[7] = test system: HL-60(TB) leukemia
[8] = test system: NCI-H522 lung
[9] = test system: SK-MEL-2 melanoma
[10] = test system: SW-620 colon
[11] = test system: SNB-75 CNS
[12] = test system: MOLT-4 leukemia
[13] = test system: U251 CNS
[14] = test system: HCC-2998 colon
[15] = test system: MDA-MB-231 breast
[16] = test system: HOP-92 NSCLC
[17] = test system: SR leukemia

SMILES: CC(C)[C@H]1NC(=O)[C@H]2N=C(O[C@@H]2C)[C@@H]2CCCN2C(=O)[C@H](Cc2ccccc2)NC(=O)[C@@H]2COC(=N2)[C@@H](Cc2ccccc2)NC(=O)[C@@H]2COC1=N2
- TGI [1]: > 100 µM
- TGI [2]: > 100 µM
- TGI [3]: > 100 µM
- TGI [4]: > 100 µM
- TGI [5]: > 100 µM
- TGI [6]: > 100 µM
- TGI [7]: > 100 µM
- TGI [8]: > 100 µM
- TGI [9]: > 100 µM
- TGI [10]: > 100 µM
- TGI [11]: 75.6 µM
- TGI [12]: > 100 µM
- TGI [13]: > 100 µM
- TGI [14]: > 100 µM
- TGI [15]: > 100 µM

SMILES: CC(=O)Oc1cc2c(n(C)c1=O)CCC2
- TGI [1]: > 100 µM
- TGI [2]: > 100 µM
- TGI [3]: > 100 µM
- TGI [5]: > 100 µM
- TGI [6]: > 100 µM
- TGI [7]: > 100 µM
- TGI [9]: > 100 µM
- TGI [10]: > 100 µM
- TGI [16]: > 100 µM
- TGI [11]: > 100 µM
- TGI [12]: > 100 µM
- TGI [13]: > 100 µM
- TGI [14]: > 100 µM
- TGI [15]: > 100 µM

SMILES: Cc1cc2nc3c(C#N)c4c(c(Nc5ccc(Cl)cc5)n3c2cc1C)CCC4
- TGI [2]: > 100 µM
- TGI [3]: 41.4 µM
- TGI [4]: 35.4 µM
- TGI [5]: 33.6 µM
- TGI [6]: 35.5 µM
- TGI [8]: 26.5 µM
- TGI [10]: 34 µM
- TGI [16]: 47.8 µM
- TGI [11]: > 100 µM
- TGI [12]: > 100 µM
- TGI [13]: 32.9 µM
- TGI [15]: 42.8 µM

SMILES: COc1ccc(/C=C2\CC3C4CC=C5C[C@@H](O)CC[C@]5(C)C4CC[C@]3(C)C2=O)cc1OC (stereo partly drawn)
- TGI [1]: > 100 µM
- TGI [2]: > 100 µM
- TGI [3]: > 100 µM
- TGI [4]: 51.9 µM
- TGI [5]: > 100 µM
- TGI [6]: > 100 µM
- TGI [7]: > 100 µM
- TGI [8]: 57.6 µM
- TGI [9]: > 100 µM
- TGI [10]: > 100 µM
- TGI [16]: > 100 µM
- TGI [11]: > 100 µM
- TGI [12]: 83.4 µM
- TGI [13]: > 100 µM
- TGI [14]: > 100 µM
- TGI [15]: > 100 µM

SMILES: Cc1ccc(C(=O)C(C)N)cc1C (stereo not drawn)
- TGI [2]: > 100 µM
- TGI [3]: > 100 µM
- TGI [4]: > 100 µM
- TGI [5]: > 100 µM
- TGI [6]: > 100 µM
- TGI [8]: > 100 µM
- TGI [9]: > 100 µM
- TGI [10]: > 100 µM
- TGI [11]: > 100 µM
- TGI [12]: > 100 µM
- TGI [13]: > 100 µM
- TGI [14]: > 100 µM

SMILES: C#CC1(O)CC(c2ccccc2)N(C)C(c2ccccc2)C1 (stereo not drawn)
- TGI [2]: > 100 µM
- TGI [3]: > 100 µM
- TGI [4]: > 100 µM
- TGI [5]: > 100 µM
- TGI [6]: > 100 µM
- TGI [7]: > 100 µM
- TGI [8]: > 100 µM
- TGI [9]: > 100 µM
- TGI [10]: > 100 µM
- TGI [16]: > 100 µM
- TGI [11]: > 100 µM
- TGI [12]: > 100 µM
- TGI [13]: > 100 µM
- TGI [14]: > 100 µM

SMILES: Cc1nc2c(s/c(=N\N)n2-c2ccccc2)c(=O)n1C
- TGI [2]: > 100 µM
- TGI [3]: > 100 µM
- TGI [5]: > 100 µM
- TGI [6]: > 100 µM
- TGI [7]: > 100 µM
- TGI [8]: > 100 µM
- TGI [9]: > 100 µM
- TGI [10]: > 100 µM
- TGI [16]: > 100 µM
- TGI [11]: > 100 µM
- TGI [12]: > 100 µM
- TGI [13]: > 100 µM
- TGI [14]: > 100 µM
- TGI [17]: > 100 µM

SMILES: O=c1ccc2nc3ccc(O)cc3oc-2c1
- TGI [1]: > 100 µM
- TGI [2]: > 100 µM
- TGI [3]: > 100 µM
- TGI [4]: > 85.7 µM
- TGI [5]: > 100 µM
- TGI [6]: > 100 µM
- TGI [7]: 25.4 µM
- TGI [8]: > 73.5 µM
- TGI [9]: 57.7 µM
- TGI [10]: > 88.9 µM
- TGI [16]: > 100 µM
- TGI [11]: 22 µM
- TGI [12]: > 100 µM
- TGI [13]: > 100 µM
- TGI [14]: > 100 µM
- TGI [15]: > 100 µM

SMILES: CCOC(=O)c1c[nH]c2cc3c(cc2c1=O)CCS3
- TGI [1]: > 100 µM
- TGI [2]: > 100 µM
- TGI [3]: > 100 µM
- TGI [4]: > 100 µM
- TGI [5]: > 100 µM
- TGI [6]: > 100 µM
- TGI [7]: > 100 µM
- TGI [8]: > 100 µM
- TGI [9]: > 100 µM
- TGI [10]: > 100 µM
- TGI [16]: > 100 µM
- TGI [11]: > 100 µM
- TGI [12]: > 100 µM
- TGI [13]: > 100 µM
- TGI [14]: > 100 µM
- TGI [15]: > 100 µM

SMILES: O=c1[nH]c(Br)nc2c(N3CCCCC3)c[nH]c12
- TGI [2]: > 100 µM
- TGI [3]: > 100 µM
- TGI [4]: > 100 µM
- TGI [5]: > 100 µM
- TGI [6]: > 100 µM
- TGI [7]: > 100 µM
- TGI [8]: 81.8 µM
- TGI [9]: > 100 µM
- TGI [10]: > 100 µM
- TGI [16]: > 100 µM
- TGI [11]: > 100 µM
- TGI [12]: > 100 µM
- TGI [13]: > 100 µM

SMILES: N#CCCN(CCC#N)c1ccc(/C=C2\N=C(c3ccccc3)N(c3ccccc3)C2=O)cc1
- TGI [1]: > 100 µM
- TGI [2]: > 100 µM
- TGI [4]: > 100 µM
- TGI [6]: > 100 µM
- TGI [7]: > 100 µM
- TGI [8]: > 100 µM
- TGI [9]: > 100 µM
- TGI [10]: > 100 µM
- TGI [16]: > 100 µM
- TGI [12]: > 100 µM
- TGI [13]: > 100 µM
- TGI [15]: > 100 µM

SMILES: C[C@]12CC[C@H]3[C@@H](CCC4=CC(=O)CC[C@@]43C)[C@@H]1CC[C@@H]2OC(=O)c1cccc2c(=O)c3ccccc3[nH]c12
- TGI [1]: > 100 µM
- TGI [2]: > 100 µM
- TGI [4]: > 100 µM
- TGI [5]: > 100 µM
- TGI [6]: > 100 µM
- TGI [8]: > 100 µM
- TGI [9]: > 100 µM
- TGI [10]: > 100 µM
- TGI [16]: > 100 µM
- TGI [11]: > 100 µM
- TGI [12]: 89.2 µM
- TGI [13]: > 100 µM
- TGI [14]: > 100 µM
- TGI [15]: > 100 µM

SMILES: CC(=O)Oc1ccc2c3c1[C@@H]1O[C@@H]1c1cccc(c1-3)[C@@H]1O[C@H]21
- GI50 [2]: 2.39 µM
- TGI [2]: 5.48 µM
- TGI [3]: 3.07 µM
- TGI [5]: 5.04 µM
- TGI [6]: 2.85 µM
- TGI [7]: 4.87 µM
- GI50 [9]: 3.12 µM
- TGI [9]: > 100 µM
- TGI [11]: 3.07 µM
- TGI [12]: > 100 µM
- TGI [15]: 3.64 µM

SMILES: CC(C)=C=CC(C)(C)NS(=O)(=O)NC(C)(C)C=C=C(C)C
- TGI [1]: > 100 µM
- TGI [2]: > 100 µM
- TGI [3]: > 100 µM
- TGI [4]: > 100 µM
- TGI [5]: > 100 µM
- TGI [6]: > 100 µM
- TGI [7]: > 100 µM
- TGI [8]: > 100 µM
- TGI [9]: > 100 µM
- TGI [10]: > 100 µM
- TGI [16]: > 100 µM
- TGI [11]: > 100 µM
- TGI [13]: > 100 µM
- TGI [14]: > 100 µM
- TGI [17]: > 100 µM

SMILES: Nc1nc2c(ncn2CC(CO)CC(c2ccccc2)P(=O)(O)O)c(=O)[nH]1 (stereo not drawn)
- TGI [3]: > 100 µM
- TGI [4]: > 100 µM
- TGI [5]: > 100 µM
- TGI [6]: > 100 µM
- TGI [7]: > 100 µM
- TGI [8]: > 100 µM
- TGI [9]: > 100 µM
- TGI [10]: > 100 µM
- TGI [16]: > 100 µM
- GI50 [11]: 13.2 µM and > 100 µM
- TGI [11]: > 100 µM
- TGI [12]: > 100 µM
- TGI [13]: > 100 µM
- TGI [14]: > 100 µM
- TGI [17]: > 100 µM

SMILES: CCOC(=O)C1C(=O)c2cccc(OC)c2C2COC(=O)N12 (stereo not drawn)
- TGI [2]: > 100 µM
- TGI [4]: > 100 µM
- TGI [5]: > 100 µM
- TGI [6]: > 100 µM
- TGI [7]: > 100 µM
- TGI [8]: > 100 µM
- TGI [9]: > 100 µM
- TGI [10]: > 100 µM
- TGI [16]: > 100 µM
- TGI [11]: > 100 µM
- TGI [12]: > 100 µM
- TGI [13]: > 100 µM
- TGI [14]: > 100 µM
- TGI [17]: > 100 µM
